Data as given in patent US5032505A, “Inhibitors for glycosaminosyl transferase V” (Chembiomed, Ltd., priority 1988, dated 1991).
Blank lines part the entries; values can stand above or below the compound they belong to.

Tests used:
GnT-V [1] = target: T1, GnT-V (Mesocricetus auratus, UniProt A0A1U8C8T3); test: GnT-V acceptor assay (transfer of GlcNAc from UDP-GlcNAc to synthetic acceptor); type: biochemical
T1 sequence (A0A1U8C8T3 1-740): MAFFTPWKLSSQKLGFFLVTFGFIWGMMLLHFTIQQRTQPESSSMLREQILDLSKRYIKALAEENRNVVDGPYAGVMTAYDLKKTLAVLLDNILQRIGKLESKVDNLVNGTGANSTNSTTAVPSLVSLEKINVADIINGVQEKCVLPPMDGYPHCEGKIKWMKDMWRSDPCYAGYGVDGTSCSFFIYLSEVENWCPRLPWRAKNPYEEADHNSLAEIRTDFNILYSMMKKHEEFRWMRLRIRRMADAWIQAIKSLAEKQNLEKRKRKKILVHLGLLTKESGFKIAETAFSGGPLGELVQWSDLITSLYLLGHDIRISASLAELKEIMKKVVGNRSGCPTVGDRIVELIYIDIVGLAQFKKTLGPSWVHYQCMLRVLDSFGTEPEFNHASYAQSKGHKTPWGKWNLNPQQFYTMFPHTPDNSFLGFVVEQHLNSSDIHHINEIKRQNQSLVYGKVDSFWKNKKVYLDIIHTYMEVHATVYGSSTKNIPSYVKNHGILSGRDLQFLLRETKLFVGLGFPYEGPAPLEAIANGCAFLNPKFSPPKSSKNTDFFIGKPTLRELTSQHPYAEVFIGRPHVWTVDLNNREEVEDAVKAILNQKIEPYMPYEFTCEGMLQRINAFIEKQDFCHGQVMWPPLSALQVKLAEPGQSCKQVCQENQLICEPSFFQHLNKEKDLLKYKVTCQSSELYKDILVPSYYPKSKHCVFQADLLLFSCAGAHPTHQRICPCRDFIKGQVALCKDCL
Method: One form of the assay is conducted by measuring the uptake of beta-GlcNAc from UDP-beta GlcNAc in the presence of the test extract by the acceptors of the invention. A variety of protocols to detect this uptake can be employed, including, for example, conjugation of the acceptor to a solid support and measuring the uptake of labeled beta-GlcNAc. An illustrative procedure is set forth, using as acceptor the trisaccharide 8-methoxycarbonyl octyl beta-GlcNAc(1-2)alpha-Man(1-6)beta-Man, in Pierce, M., et al, Biochem Biophys Res Commun (1987) 146:679-684, incorporated herein by reference. This procedure uses radiolabeled UDP-beta GlcNAc to provide a detection means for uptake of the substrate. Other protocols for measuring GnT-V using the acceptors of the invention can be adapted, for example, from the procedure used to measure the levels of GnT-V acceptor in EPO published application 134,292 to Abbott Laboratories.
The procedure for assaying GnT-V activity is described in Tahir, S.H., et al, Can J Chem (1986) 64:1771, cited above, and incorporated herein by reference. This procedure is also described in Palcic, M. M., et al, Glycoconjugate J (1988) 5:49, and in Hindsgual, O., et al, Carbohydrate Res (1988) 173:263, both incorporated herein by reference. The latter two citations describe the results of this assay using various synthetic acceptors.

GnT-V [2] = target: T1, GnT-V; conditions: as acceptor for GnT-V; Palcic reference; read-out: apparent Km; cited from earlier work
B16 melanoma = conditions: literature; cited from earlier work
MDAY-D2 lymphoma cells = conditions: literature; cited from earlier work
tumor cells [3] = conditions: literature; cited from earlier work
tumor cells [4] = conditions: literature; cited from earlier work; remark: listed apart in the source

Compound: CCCCCCCCO[C@@H]1O[C@H]([C@@H](C)O[C@H]2O[C@H](CO)[C@@H](O)[C@H](O)[C@@H]2O[C@@H]2O[C@H](CO)[C@@H](O)[C@H](O)[C@H]2NC(C)=O)[C@@H](O)[C@H](O)[C@H]1O
Vmax relative to the unmethylated analog (GnT-V [1]; as acceptor, assay of the Pierce reference): three times that of the unmethylated analog

Compound: COC(=O)CCCCCCCCO[C@@H]1O[C@H](CO[C@H]2O[C@H](CO)[C@@H](O)[C@H](O)[C@@H]2O[C@@H]2O[C@H](CO)[C@@H](O)[C@H](O)[C@H]2NC(C)=O)[C@@H](O)[C@H](O)[C@@H]1O [8-methoxycarbonyloctyl 6-O-[2-O-(2-acetamido-2-deoxy-beta-D-glucopyranosyl)-alpha-D-mannopyranosyl]-beta-D-mannopyranoside]
Km (GnT-V [2]): 80 µM

ability to act as an acceptor, relative to the remaining compounds (GnT-V [1]; relative to the other five octyl trisaccharide acceptors): about 25%
Compound: CC(=O)N[C@H]1[C@H](O[C@@H]2[C@@H](OCC3CCCCC3)O[C@H](CO)[C@@H](O)[C@@H]2O)O[C@H](CO)[C@@H](O)[C@@H]1O [Cyclohexylmethyl 6-O-[2-O-(2-acetamido-2-deoxy-beta-D-glucopyranosyl)-alpha-D-mannopyranoside]]

Compound: COC(=O)CCCCCCCCO[C@@H]1O[C@H](CO[C@H]2O[C@H](CO)[C@@H](O)[C@H](O)[C@@H]2O)[C@@H](O)[C@H](O[C@H]2O[C@H](CO)[C@@H](O)[C@H](O)[C@@H]2O)[C@@H]1O [GnT-1 Acceptor]
entry into cells (Lec8 CHO Cells): has entered the cells to some extent after 3 hr and to a greater extent after 6

Compound: O[C@H]1[C@H](O)[C@@H](O)CN2CC[C@H](O)[C@H]12 [castanospermine]
organ colonization by B16 melanoma (B16 melanoma): inhibit organ colonization by B16 melanoma

effectiveness as an acceptor (GnT-V [1]; compared with the proR methylated compound): less effective as an acceptor
Compound: CCCCCCCCO[C@@H]1O[C@H]([C@H](C)O[C@H]2O[C@H](CO)[C@@H](O)[C@H](O)[C@@H]2O[C@@H]2O[C@H](CO)[C@@H](O)[C@H](O)[C@H]2NC(C)=O)[C@@H](O)[C@H](O)[C@H]1O [proS methylated compound]

Compound: O[C@H]1[C@H]2[C@H](O)CCCN2C[C@H]1O [swainsonine]
colonization by metastatic MDAY-D2 lymphoma cells (MDAY-D2 lymphoma cells): inhibit colonization by metastatic MDAY-D2 lymphoma cells
susceptibility of tumor cells to natural killer cells (tumor cells [3]): enhance susceptibility of tumor cells to natural killer cells
organ colonization by B16 melanoma (B16 melanoma): inhibit organ colonization by B16 melanoma
tumor cell growth rate in soft agar (tumor cells [4]): reduce tumor cell growth rate in soft agar

Compound: tunicamycin
organ colonization by B16 melanoma (B16 melanoma): inhibit organ colonization by B16 melanoma
